From article PMC9110600, “Purification, identification and characterization of Nag2 N-acetylglucosaminidase from Trichoderma virens strain mango” (Botanical Studies, 2022)

Molecular target: T1, TvmNAG2 (Trichoderma virens, UniProt G9MXZ5)
T1 construct: gene NAG2; mature (signal peptide removed)
Assay: p-nitrophenol release at […] nm, Lineweaver-Burk
Type: biochemical
Settings: standard assay: 50 mM phosphate buffer pH 5, 65 °C, 30 min

T1 sequence (G9MXZ5 entry or part of it): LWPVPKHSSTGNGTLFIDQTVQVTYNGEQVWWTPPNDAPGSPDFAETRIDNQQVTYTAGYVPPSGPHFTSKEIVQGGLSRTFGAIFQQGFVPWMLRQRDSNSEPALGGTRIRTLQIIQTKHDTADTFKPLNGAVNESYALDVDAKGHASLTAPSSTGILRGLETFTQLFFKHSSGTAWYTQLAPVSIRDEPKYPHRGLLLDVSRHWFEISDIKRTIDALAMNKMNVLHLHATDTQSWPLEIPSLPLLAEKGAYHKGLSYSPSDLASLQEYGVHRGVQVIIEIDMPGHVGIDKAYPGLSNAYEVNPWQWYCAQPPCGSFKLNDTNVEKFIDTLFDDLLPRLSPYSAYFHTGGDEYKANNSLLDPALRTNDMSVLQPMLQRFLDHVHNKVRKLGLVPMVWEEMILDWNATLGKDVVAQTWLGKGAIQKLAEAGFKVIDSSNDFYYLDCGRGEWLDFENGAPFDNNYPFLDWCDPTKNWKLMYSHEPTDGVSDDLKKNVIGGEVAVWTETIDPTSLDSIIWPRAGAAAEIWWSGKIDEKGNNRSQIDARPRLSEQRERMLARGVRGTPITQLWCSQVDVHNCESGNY

With `CC(=O)N[C@H]1[C@H](Oc2ccc([N+](=O)[O-])cc2)O[C@H](CO)[C@@H](O)[C@@H]1O` [pNP-NAG] the Km was ~450 µM.
